Experiments:
[1] = Growth promotion in chicks, titration dosage, Example IX (Table III); format: in vivo, broiler cross chicks
Excerpt: The concentrations used in this test were 6.25, 12.5, 25, 50, 100, 200 and 400 g of the Product of Example I per ton of the Basal Ration described in Example VII above. The same number and size chick treatment groups were used in this test as in Example VIII above.

[2] = Growth promotion in chicks at 25 g/T, Example X (Table IV); format: in vivo, broiler cross chicks; conditions: 25 g/T
Excerpt: This example compares growth promotion activity of the product of Example I with other growth promotants at a concentration of 25 g/T in the Basal Ration described in Example VII. The other growth promotants include the product described in Example I of U.S. Pat. No. 3,542,784 -- Burch and quinoxaline-1,4-dioxide. Day old broiler cross chicks were weight equalized into groups of eight chicks each, and four replicates of eight chicks each were fed the experimental rations over a 4 week period.

In the case of O=[N+]([O-])c1ccc(C=Cc2nc(Nc3ccc(O)cc3)c3ccccc3n2)o1 [Example I, 2-[2-(5-nitro-2-furyl)vinyl]-4-(p-hydroxyanilino)quinazoline], the “Average 4 Week Performance: Feed Efficiency” value ([1]; 6.25 g/T) is reported as 1.657, the “Average 4 Week Performance: Gain” value ([1]; 6.25 g/T) is reported as 714.6 g and the “Improved Response Over Basal Ration: Feed Efficiency” value ([1]; 6.25 g/T) is reported as “+3.4%”. For the same molecule, the “Improved Response Over Basal Ration: Gain” value ([1]; 6.25 g/T) was -3.4%, the “activity (in words)” value ([1]; 6.25 g/T) was “little or no activity” and the “Average 4 Week Performance: Feed Efficiency” value ([1]; 12.5 g/T) was 1.652. For the same molecule, the “Average 4 Week Performance: Gain” value ([1]; 12.5 g/T) was 765.3 g, the “Improved Response Over Basal Ration: Feed Efficiency” value ([1]; 12.5 g/T) was “+3.7%” and the “Improved Response Over Basal Ration: Gain” value ([1]; 12.5 g/T) was “+3.4%”. For the same molecule, the “Average 4 Week Performance: Feed Efficiency” value ([1]; 25 g/T) was 1.603, the “Average 4 Week Performance: Gain” value ([1]; 25 g/T) was 805.7 g and the “Improved Response Over Basal Ration: Feed Efficiency” value ([1]; 25 g/T) was “+6.5%”. The “Improved Response Over Basal Ration: Gain” value ([1]; 25 g/T) was “+8.9%”, the “Average 4 Week Performance: Feed Efficiency” value ([1]; 50 g/T) was 1.609 and the “Average 4 Week Performance: Gain” value ([1]; 50 g/T) was 785.3 g. The “Improved Response Over Basal Ration: Feed Efficiency” value ([1]; 50 g/T) was “+6.2%”, the “Improved Response Over Basal Ration: Gain” value ([1]; 50 g/T) was “+6.1%” and the “Average 4 Week Performance: Feed Efficiency” value ([1]; 100 g/T) was 1.663. The “Average 4 Week Performance: Gain” value ([1]; 100 g/T) was 742.7 g, the “Improved Response Over Basal Ration: Feed Efficiency” value ([1]; 100 g/T) was “+3.0%” and the “Improved Response Over Basal Ration: Gain” value ([1]; 100 g/T) was “+0.4%”. For the same molecule, the “weight gain improvement (in words)” value ([1]; 100 g/T) was “unexplained absence of weight gain improvement”, the “Average 4 Week Performance: Feed Efficiency” value ([1]; 200 g/T) was 1.609 and the “Average 4 Week Performance: Gain” value ([1]; 200 g/T) was 782.5 g. For the same molecule, the “Improved Response Over Basal Ration: Feed Efficiency” value ([1]; 200 g/T) was “+6.2%”, the “Improved Response Over Basal Ration: Gain” value ([1]; 200 g/T) was “+5.8%” and the “Average 4 Week Performance: Feed Efficiency” value ([1]; 400 g/T) was 1.678. The “Average 4 Week Performance: Gain” value ([1]; 400 g/T) was 751.5 g, the “Improved Response Over Basal Ration: Feed Efficiency” value ([1]; 400 g/T) was “+2.2%” and the “Improved Response Over Basal Ration: Gain” value ([1]; 400 g/T) was “+1.6%”. For the same molecule, the “response (in words)” value ([1]; 400 g/T) was “sharp downturn”, the “level at which noticeable growth promotion began” value ([1]; in vivo) was 12.5 g/T and the “optimum concentration (economics and efficacy)” value ([1]; in vivo) was 25 g/T. For the same molecule, the “effect on feed efficiency (in words)” value [2] was “strongest response in growth rate and feed efficiency” and the “growth response (in words)” value [2] was “strongest response in growth rate and feed efficiency”.

Source: patent publication US3970648A, “2-[2-(5-Nitro-2-furyl)vinyl]-4-(anilino)quinazolines” (Diamond Shamrock Corporation, priority 1974, dated 1976)
